Test results published in patent publication US20030226169A1, “DNA sequences encoding antifungal proteins” (priority 1995, published 2003).
In brackets after ≈: the same amount, converted by molar mass. Like-named read-outs stand apart in the source and are kept apart here. Residues, ends and D or L forms follow the SMILES beside them.

Columns and labels:
F culmorum = experiment: Antifungal activity of combinations of Rs-AFP and 15-mer peptides; assay type: cell-based, Fusarium culmorum; conditions: 100 x MIC of Rs-AFP2 / MIC of Rs-AFP2/peptide combination; 15-mer peptide added at 20 μg/ml; SMF medium; BSA-coated plates; Rs-AFP2 alone = 100
Method: The 15-mer peptides were tested for their ability to affect the antifungal activity of the Rs-AFP2 protein (SEQ ID NO: 35). Each peptide was added at a subinhibitory concentration (20 μg/ml ) to a twofold dilution series of Rs-AFP2 (SEQ ID NO: 35) ranging from 20 μg/ml down to 0.15 μg/ml. In the control series only water was added.
The target fungus was F culmorum and the growth medium was SMF. In order to exclude the effect of differential binding of the peptides to the microplate wells, the plates were coated with bovine serum albumin. […] The relative specific activity is defined as one hundred times the MIC of Rs-AFP2 divided by the MIC of the Rs-AFP2/peptide combination. Data are based on duplicate tests.

[1] = system: Fusarium culmorum (IMI 180420); experiment: Antifungal growth inhibition microplate assay (photospectrometry); assay type: cell-based; conditions: ½ PDB; for IC50 / F CULMORUM IC50 / F CULMORUM IC: the source numbers peptides by N-terminal amino acid; for F CULMORUM IC50: Table 7 / FIG. 8: Rs-AFP1-based 12-mer split peptides; for F CULMORUM IC: Table 6 / FIG. 8: Rs-AFP1-based 9-mer split peptides
How it was run: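 Spores (2×10^4/ml) in half-strength potato dextrose broth exposed to test solution, incubated in the dark at room temperature for about 72 h (96 h for V. dahliae). Growth by OD595 minus 30-min reading; IC50 is 50% and MIC 100% growth inhibition.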

[2] = system: Ascophyta pisi (MUCL 30164); assay type: cell-based; conditions: ½ PDB; for A PISI IC: the source numbers peptides by N-terminal amino acid
Method: The following fungal strains were used: Alternaria brassicicola (MUCL 20297), Ascophyta pisi (MUCL 30164), Botrytis cinerea (MUCL 30158), Fusarium culmorum (IMI 180420) and Verticillium dahliae (MUCL 19210).
Fungi were grown on six cereal agar plates at room temperature and under white fluorescent light except for F culmorum and V dahliae which were grown in the dark. The duration of the spore harvest varied between 10 and 25 days depending on the strain. Spores were collected as follows. Five to ten ml of sterile milli-Q water was poured into each dish and the surface of the agar was rubbed with a sterile spatula to obtain a suspension containing mycelium and spores. This suspension was filtered through a sterile glasswool-plugged funnel and the filtrate containing the spores was collected in a sterile polypropylene centrifuge tube. The A brassicicola spores were suspended in sterile 0.1 Tween 20 (Merk, 822184) due to their hydrophobic nature. The spore suspensions were then washed twice by centrifugation at 2,400×g for 15 minutes and resuspended in a small volume of steril milli-Q water. The spore density was determined in a counting chamber and then adjusted to 4×10^7 spores per ml. Aliquots of the spore suspension were transferred to sterile microtubes and an equal volume of sterile 50% glycerol (Merck, 4091) was added to each tube so that a final spore suspension of 2×10^7 spores per ml in 25% glycerol was obtained. After careful mixing of the stock, the spore suspension was transferred in 100 μl aliquots to sterile microtubes and stored at −80° C.
Antifungal activity was measured by photospectrometry as described by Broekaert et al, (1990, FEMS Microbiol Lett, 69:55-60). Tests were performed by adding 20 μl of test solution and 80 μl of a fungal spore suspension (2×10^4 spores/ml) per well in a sterile flat-bottom 96-well microtiterplate. The spore suspension was prepared by diluting the stock spore suspension ([…] in 25% glycerol) 1:1000 in half-strength potato dextrose broth. A positive growth control consisting of eight wells containing 20 μl of sterile milli-Q water and 80 μl of the fungal spore suspension was included in each test. The microtiterplates were incubated (with the lid on) in an aerated place at room temperature and under conditions of darkness for all test organisms.
After 30 minutes of incubation (when the spores are settled on the well bottom) the optical density was measured in a microplate reader (Bio Rad 3550-UV) at 595 nm. Incubation of the microtiterplates continued until the optical density of the control microculture was between 0.250 and 0.500, which took approximately 72 hours (96 hours for V dahliae). Percentage of growth inhibition (% GI) was estimated as 100 times the ratio of the corrected absorbance of the control microculture minus the corrected absorbance of the test microculture over the corrected absorbance of the control microculture at 595 nm. The corrected absorbance values equal the absorbance at 595 nm of the culture measured after 72 or 96 hours minus the absorbance at 595 nm measured after 30 minutes.
% GI=[(Acontrol−Atest/Acontrol]×100
where Acontrol=(A72/96h−A30min)control
The IC50 value is defined as the concentration that gives a 50% growth inhibition after 72 or 96 hours of incubation. The minimum inhibitory concentration (MIC) corresponds to the minimum concentration that gives 100% growth inhibition after 72 or 96 hours incubation.

[3] = Table 4 / FIG. 6: Rs-AFP2-based 12-mer split peptides
[4] = Table 4: Rs-AFP2-based 12-mer split peptides, triplicate
[5] = Table 7: Rs-AFP1-based 12-mer split peptides
[6] = Table 3 / FIG. 6: Rs-AFP2-based 9-mer split peptides
[7] = Table 3: Rs-AFP2-based 9-mer split peptides, duplicate
[8] = Table 6: Rs-AFP1-based 9-mer split peptides

| Compound | Relative Specific Antifungal Activity (F culmorum) | IC50 [1, 6] | MIC [1, 7] | F CULMORUM IC [1] | F CULMORUM MIC [1, 8] | A PISI MIC [2, 8] | A PISI IC [2, 8] | other results |
| --- | --- | --- | --- | --- | --- | --- | --- | --- |
| CC[C@H](C)[C@H](NC(=O)[C@H](CS)NC(=O)[C@H](CCC(N)=O)NC(=O)[C@H](CC(N)=O)NC(=O)[C@H](CCCCN)NC(=O)[C@H](CS)NC(=O)[C@H](C)NC(=O)[C@H](CC(N)=O)NC(=O)[C@H](CC(N)=O)NC(=O)[C@H](CC(N)=O)NC(=O)CNC(=O)[C@H](CS)NC(=O)[C@@H](NC(=O)CNC(C)=O)C(C)C)C(=O)N[C@@H](CCCNC(=N)N)C(N)=O [Peptide 4 (Rs-AFP2 15-mer)] (Ac-GVCGNNNACKNQCIR-NH2; N-terminus and C-terminus assumed) | 180 |  |  |  |  |  |  |  |
| CC(=O)N[C@@H](CCC(N)=O)C(=O)N[C@@H](CCCCN)C(=O)N[C@@H](CC(C)C)C(=O)N[C@@H](CS)C(=O)N[C@@H](CCC(N)=O)C(=O)N[C@@H](CCCNC(=N)N)C(=O)N1CCC[C@H]1C(=O)N[C@@H](CO)C(=O)NCC(=O)N[C@H](C(=O)N[C@@H](Cc1c[nH]c2ccccc12)C(=O)N[C@@H](CO)C(=O)NCC(=O)N[C@H](C(=O)N[C@@H](CS)C(N)=O)C(C)C)[C@@H](C)O [Peptide 1 (Rs-AFP2 15-mer)] (Ac-QKLCQRPSGTWSGVC-NH2; N-terminus and C-terminus assumed) | 310 |  |  |  |  |  |  |  |
| 114 (CIRLEKARHGSC; listed as Raphanus sativus) [compound 114] |  |  |  |  |  |  |  | IC50 [1, 3]: 74 µg/mL; MIC [1, 4]: 100 µg/mL; F CULMORUM IC50 [1]: 328 µg/mL; F CULMORUM MIC [1, 5]: 400 µg/mL; A PISI IC50 [2, 5]: 318 µg/mL; A PISI MIC [2, 5]: >400 µg/mL |
| CC[C@H](C)[C@H](NC(=O)[C@H](CS)NC(=O)[C@H](CCCCN)NC(=O)[C@H](Cc1c[nH]cn1)NC(=O)[C@H](C)NC(=O)[C@@H]1CCCN1C(=O)[C@H](Cc1ccccc1)NC(=O)[C@@H](NC(=O)[C@H](Cc1ccc(O)cc1)NC(=O)[C@H](CC(N)=O)NC(C)=O)C(C)C)C(=O)N[C@@H](CS)C(=O)N[C@@H](Cc1ccc(O)cc1)C(N)=O [compound 126] (Ac-NYVFPAHKCICY-NH2) |  |  |  |  |  |  |  | IC50 [1, 3]: 201 µg/mL (≈ 134 µM); MIC [1, 4]: 300 µg/mL (≈ 200 µM); F CULMORUM IC50 [1]: 189 µg/mL; F CULMORUM MIC [1, 5]: 300 µg/mL; A PISI IC50 [2, 5]: 298 µg/mL; A PISI MIC [2, 5]: 400 µg/mL |
| CC[C@H](C)[C@H](NC(=O)[C@H](CS)NC(=O)[C@H](CCC(N)=O)NC(=O)[C@H](CC(N)=O)NC(=O)[C@H](CCCCN)NC(=O)[C@H](CS)NC(=O)[C@H](C)NC(=O)[C@H](CC(N)=O)NC(=O)[C@H](CC(N)=O)NC(=O)[C@H](CC(N)=O)NC(C)=O)C(=O)N[C@@H](CCCNC(=N)N)C(=O)N[C@@H](CC(C)C)C(=O)N[C@@H](CCC(=O)O)C(=O)N[C@@H](CCCCN)C(=O)N[C@@H](C)C(N)=O [Peptide 5 (Rs-AFP2 15-mer)] (Ac-NNNACKNQCIRLEKA-NH2; N-terminus and C-terminus assumed) | 180 |  |  |  |  |  |  |  |
| CC[C@H](C)[C@H](NC(=O)[C@H](CS)NC(=O)[C@H](CCCCN)NC(=O)[C@H](Cc1c[nH]cn1)NC(=O)[C@H](C)NC(=O)[C@@H]1CCCN1C(=O)[C@H](Cc1ccccc1)NC(C)=O)C(=O)N[C@@H](CS)C(=O)N[C@@H](Cc1ccc(O)cc1)C(N)=O [compound 86] (Ac-FPAHKCICY-NH2) |  | 144 µg/mL (≈ 128 µM) | 400 µg/mL (≈ 356 µM) | 196 µg/mL | 250 µg/mL | 200 µg/mL | 80 µg/mL |  |
| CC[C@H](C)[C@H](NC(=O)[C@H](CS)NC(=O)[C@H](CCCCN)NC(=O)[C@H](Cc1c[nH]cn1)NC(=O)[C@H](C)NC(C)=O)C(=O)N[C@@H](CS)C(=O)N[C@@H](Cc1ccc(O)cc1)C(=O)N[C@@H](Cc1ccccc1)C(=O)N1CCC[C@H]1C(N)=O [compound 88] (Ac-AHKCICYFP-NH2) |  | 35 µg/mL (≈ 31.2 µM) | 50 µg/mL (≈ 44.5 µM) | 21 µg/mL | 37.5 µg/mL | 25 µg/mL | 18 µg/mL |  |
| Ac-ARHGSCNYV-NH2 [compound 77] |  | 189 µg/mL | 300 µg/mL | 193 µg/mL | 300 µg/mL | 200 µg/mL | 143 µg/mL |  |
| CC[C@H](C)[C@H](NC(=O)[C@H](CS)NC(=O)[C@H](CCCCN)NC(=O)[C@H](Cc1c[nH]cn1)NC(=O)[C@H](C)NC(=O)[C@@H]1CCCN1C(=O)[C@H](Cc1ccccc1)NC(=O)[C@@H](NC(=O)[C@H](Cc1ccc(O)cc1)NC(=O)[C@H](CC(N)=O)NC(C)=O)C(C)C)C(=O)N[C@@H](CS)C(=O)N[C@@H](Cc1ccc(O)cc1)C(=O)N[C@@H](Cc1ccccc1)C(=O)N1CCC[C@H]1C(=O)N[C@@H](CS)C(N)=O [Peptide 10 (Rs-AFP2 15-mer)] (Ac-NYVFPAHKCICYFPC-NH2; N-terminus and C-terminus assumed) | 250 |  |  |  |  |  |  |  |
| Ac-RHGSCNYVF-NH2 [compound 78] |  | 284 µg/mL | 400 µg/mL | 69 µg/mL | 100 µg/mL | 100 µg/mL | 70 µg/mL |  |
| Ac-CNYVFPAHK-NH2 [compound 82] |  | 77 µg/mL | 100 µg/mL | 113 µg/mL | 150 µg/mL | 400 µg/mL | 265 µg/mL |  |
| Ac-QRPSGTWSGVCGNNN-NH2 (N-terminus and C-terminus assumed) [Peptide 2 (Rs-AFP2 15-mer)] | 120 |  |  |  |  |  |  |  |
| Ac-LEKARHGSCNYV-NH2 [compound 117] |  |  |  |  |  |  |  | IC50 [1, 3]: 327 µg/mL; MIC [1, 4]: >400 µg/mL; F CULMORUM IC50 [1]: 347 µg/mL; F CULMORUM MIC [1, 5]: 400 µg/mL; A PISI IC50 [2, 5]: 293 µg/mL; A PISI MIC [2, 5]: 400 µg/mL |
